In ChEMBL document CHEMBL6092167, “Phosphorylation as an Effective Tool to Improve Stability and Reduce Toxicity of Antimicrobial Peptides” (J Med Chem, 2024):
Values after ≈ are worked out from the molar mass of the structure shown. Non-standard residues stand in square brackets, D forms with d. Residues, ends and D or L forms follow the SMILES beside them. Bip = N[C@@H](Cc1ccc(-c2ccccc2)cc1)C(=O)O; pY = N[C@@H](Cc1ccc(OP(=O)(O)O)cc1)C(=O)O; pT = C[C@@H](OP(=O)(O)O)[C@H](N)C(=O)O; 2Nal = N[C@@H](Cc1ccc2ccccc2c1)C(=O)O

Experiments:
[1] = test system: Acinetobacter baumannii; assay: Antibacterial activity against Acinetobacter baumannii ATCC 19606 incubated for 18 to 24 hrs by broth microdilution method; format: functional; conditions: time 18-24 hrs
[2] = Cytotoxicity against HEK293T cells incubated for 1 hr by fluorescence based microplate reader assay; format: toxicity, cell-based, HEK-293T; conditions: human
[3] = test system: Staphylococcus aureus; assay: Antibacterial activity against methicillin resistant Staphylococcus aureus 48 incubated for 18 to 24 hrs by broth microdilution method; format: functional; conditions: time 18-24 hrs
[4] = test system: Escherichia coli; assay: Antibacterial activity against Escherichia coli 780 incubated for 18 to 24 hrs by broth microdilution method; format: functional; conditions: time 18-24 hrs
[5] = test system: Escherichia coli; assay: Antibacterial activity against Escherichia coli 850 incubated for 18 to 24 hrs by broth microdilution method; format: functional; conditions: time 18-24 hrs
[6] = Hemolytic activity in mouse erythrocyte incubated for 1 hr by microplate reader assay; format: toxicity, cell-based
[7] = test system: Staphylococcus aureus; assay: Antibacterial activity against methicillin resistant Staphylococcus aureus ATCC 33591 incubated for 18 to 24 hrs by broth microdilution method; format: functional; conditions: time 18-24 hrs
[8] = test system: Pseudomonas aeruginosa; assay: Antibacterial activity against Pseudomonas aeruginosa ATCC 27853 incubated for 18 to 24 hrs by broth microdilution method; format: functional; conditions: time 18-24 hrs
[9] = test system: Staphylococcus aureus; assay: Antibacterial activity against Staphylococcus aureus ATCC 25923 incubated for 18 to 24 hrs by broth microdilution method; format: functional; conditions: time 18-24 hrs
[10] = test system: Escherichia coli; assay: Antibacterial activity against Escherichia coli ATCC 25922 incubated for 18 to 24 hrs by broth microdilution method; format: functional; conditions: time 18-24 hrs
[11] = test system: Klebsiella pneumoniae; assay: Antibacterial activity against Klebsiella pneumoniae ATCC 700603 incubated for 18 to 24 hrs by broth microdilution method; format: functional; conditions: time 18-24 hrs
[12] = test system: Pseudomonas aeruginosa; assay: Antibacterial activity against Pseudomonas aeruginosa 119 incubated for 18 to 24 hrs by broth microdilution method; format: functional; conditions: time 18-24 hrs
[13] = test system: Bacillus subtilis; assay: Antibacterial activity against Bacillus subtilis ATCC 23857 incubated for 18 to 24 hrs by broth microdilution method; format: functional; conditions: time 18-24 hrs
[14] = test system: Staphylococcus aureus; assay: Antibacterial activity against Staphylococcus aureus 794 incubated for 18 to 24 hrs by broth microdilution method; format: functional; conditions: time 18-24 hrs

CC(C)C[C@H](NC(=O)[C@H](CC(C)C)NC(=O)[C@H](Cc1ccc(O)cc1)NC(=O)[C@H](CCCCN)NC(=O)[C@H](Cc1ccc(-c2ccccc2)cc1)NC(=O)[C@H](CCCNC(=N)N)NC(=O)[C@H](CCCCN)NC(=O)[C@H](CC(C)C)NC(=O)[C@H](CC(C)C)NC(=O)CN)C(N)=O (H-GLLKR[Bip]KYLL-NH2)
MIC [1]: 16 µM (≈ 21.2 µg/mL) | CC50 at 1 h [2]: 82.3 µM | MIC [3]: 8 µM (≈ 10.6 µg/mL) | MIC [4]: 8 µM (≈ 10.6 µg/mL) | MIC [5]: 8 µM (≈ 10.6 µg/mL) | MHC [6]: 99.53 µM | MIC [7]: 8 µM (≈ 10.6 µg/mL) | MIC [8]: 8 µM (≈ 10.6 µg/mL) | MIC [9]: 8 µM (≈ 10.6 µg/mL) | MIC [10]: 8 µM (≈ 10.6 µg/mL) | MIC [11]: 8 µM (≈ 10.6 µg/mL) | MIC [12]: 8 µM (≈ 10.6 µg/mL) | MIC [13]: 4 µM (≈ 5.3 µg/mL) | MIC [14]: 8 µM (≈ 10.6 µg/mL)

CC(C)C[C@H](NC(=O)[C@H](CC(C)C)NC(=O)[C@@H](NC(=O)[C@H](CCCCN)NC(=O)[C@H](Cc1ccc(-c2ccccc2)cc1)NC(=O)[C@H](CCCNC(=N)N)NC(=O)[C@H](CCCCN)NC(=O)[C@H](CC(C)C)NC(=O)[C@H](CC(C)C)NC(=O)CN)[C@@H](C)OP(=O)(O)O)C(N)=O (H-GLLKR[Bip]K[pT]LL-NH2)
MIC [1]: 64 µM (≈ 86 µg/mL) | CC50 at 1 h [2]: 131 µM | MIC [3]: 128 µM (≈ 172 µg/mL) | MIC [4]: 32 µM (≈ 43 µg/mL) | MIC [5]: 64 µM (≈ 86 µg/mL) | MHC [6]: > 256 µM | MIC [7]: 128 µM (≈ 172 µg/mL) | MIC [8]: 64 µM (≈ 86 µg/mL) | MIC [9]: 128 µM (≈ 172 µg/mL) | MIC [10]: 64 µM (≈ 86 µg/mL) | MIC [11]: 128 µM (≈ 172 µg/mL) | MIC [12]: 128 µM (≈ 172 µg/mL) | MIC [13]: 32 µM (≈ 43 µg/mL) | MIC [14]: 32 µM (≈ 43 µg/mL)

CC(C)C[C@H](NC(=O)[C@H](CC(C)C)NC(=O)[C@H](Cc1ccc(OP(=O)(O)O)cc1)NC(=O)[C@H](CCCCN)NC(=O)[C@H](Cc1ccc(-c2ccccc2)cc1)NC(=O)[C@H](CCCNC(=N)N)NC(=O)[C@H](CCCCN)NC(=O)[C@H](CC(C)C)NC(=O)[C@H](CC(C)C)NC(=O)CN)C(N)=O (H-GLLKR[Bip]K[pY]LL-NH2)
MIC [1]: 8 µM (≈ 11.2 µg/mL) | CC50 at 1 h [2]: 110 µM | MIC [3]: 8 µM (≈ 11.2 µg/mL) | MIC [4]: 16 µM (≈ 22.5 µg/mL) | MIC [5]: 16 µM (≈ 22.5 µg/mL) | MHC [6]: 131.69 µM | MIC [7]: 8 µM (≈ 11.2 µg/mL) | MIC [8]: 32 µM (≈ 45 µg/mL) | MIC [9]: 16 µM (≈ 22.5 µg/mL) | MIC [10]: 8 µM (≈ 11.2 µg/mL) | MIC [11]: 16 µM (≈ 22.5 µg/mL) | MIC [12]: 32 µM (≈ 45 µg/mL) | MIC [13]: 8 µM (≈ 11.2 µg/mL) | MIC [14]: 8 µM (≈ 11.2 µg/mL)

CC(C)C[C@H](NC(=O)[C@H](CC(C)C)NC(=O)[C@H](Cc1ccc(OP(=O)(O)O)cc1)NC(=O)[C@H](CCCCN)NC(=O)[C@H](CC(C)C)NC(=O)[C@H](CCCNC(=N)N)NC(=O)[C@H](CCCCN)NC(=O)[C@H](Cc1c[nH]c2ccccc12)NC(=O)[C@H](CC(C)C)NC(=O)CN)C(N)=O (H-GLWKRLK[pY]LL-NH2)
MIC [1]: 8 µM (≈ 10.9 µg/mL) | CC50 at 1 h [2]: 148 µM | MIC [3]: 16 µM (≈ 21.9 µg/mL) | MIC [4]: 8 µM (≈ 10.9 µg/mL) | MIC [5]: 16 µM (≈ 21.9 µg/mL) | MHC [6]: 268.04 µM | MIC [7]: 16 µM (≈ 21.9 µg/mL) | MIC [8]: 32 µM (≈ 43.8 µg/mL) | MIC [9]: 16 µM (≈ 21.9 µg/mL) | MIC [10]: 8 µM (≈ 10.9 µg/mL) | MIC [11]: 16 µM (≈ 21.9 µg/mL) | MIC [12]: 64 µM (≈ 87.6 µg/mL) | MIC [13]: 8 µM (≈ 10.9 µg/mL) | MIC [14]: 8 µM (≈ 10.9 µg/mL)

CC(C)C[C@H](NC(=O)[C@H](CC(C)C)NC(=O)[C@@H](NC(=O)[C@H](CCCCN)NC(=O)[C@H](CC(C)C)NC(=O)[C@H](CCCNC(=N)N)NC(=O)[C@H](CCCCN)NC(=O)[C@H](Cc1ccc2ccccc2c1)NC(=O)[C@H](CC(C)C)NC(=O)CN)[C@@H](C)O)C(N)=O (H-GL[2Nal]KRLKTLL-NH2)
MIC [1]: 8 µM (≈ 9.9 µg/mL) | CC50 at 1 h [2]: 111 µM | MIC [3]: 8 µM (≈ 9.9 µg/mL) | MIC [4]: 8 µM (≈ 9.9 µg/mL) | MIC [5]: 8 µM (≈ 9.9 µg/mL) | MHC [6]: 154.3 µM | MIC [7]: 8 µM (≈ 9.9 µg/mL) | MIC [8]: 8 µM (≈ 9.9 µg/mL) | MIC [9]: 8 µM (≈ 9.9 µg/mL) | MIC [10]: 8 µM (≈ 9.9 µg/mL) | MIC [11]: 8 µM (≈ 9.9 µg/mL) | MIC [12]: 8 µM (≈ 9.9 µg/mL) | MIC [13]: 8 µM (≈ 9.9 µg/mL) | MIC [14]: 8 µM (≈ 9.9 µg/mL)

CC(C)C[C@H](NC(=O)[C@H](CC(C)C)NC(=O)[C@H](Cc1ccc(O)cc1)NC(=O)[C@H](CCCCN)NC(=O)[C@H](CC(C)C)NC(=O)[C@H](CCCNC(=N)N)NC(=O)[C@H](CCCCN)NC(=O)[C@H](Cc1ccc2ccccc2c1)NC(=O)[C@H](CC(C)C)NC(=O)CN)C(N)=O (H-GL[2Nal]KRLKYLL-NH2)
MIC [1]: 8 µM (≈ 10.4 µg/mL) | CC50 at 1 h [2]: 61.5 µM | MIC [3]: 8 µM (≈ 10.4 µg/mL) | MIC [4]: 8 µM (≈ 10.4 µg/mL) | MIC [5]: 8 µM (≈ 10.4 µg/mL) | MHC [6]: 78.09 µM | MIC [7]: 8 µM (≈ 10.4 µg/mL) | MIC [8]: 8 µM (≈ 10.4 µg/mL) | MIC [9]: 8 µM (≈ 10.4 µg/mL) | MIC [10]: 8 µM (≈ 10.4 µg/mL) | MIC [11]: 8 µM (≈ 10.4 µg/mL) | MIC [12]: 8 µM (≈ 10.4 µg/mL) | MIC [13]: 4 µM (≈ 5.2 µg/mL) | MIC [14]: 8 µM (≈ 10.4 µg/mL)

CC(C)C[C@H](NC(=O)[C@H](CC(C)C)NC(=O)[C@@H](NC(=O)[C@H](CCCCN)NC(=O)[C@H](CC(C)C)NC(=O)[C@H](CCCNC(=N)N)NC(=O)[C@H](CCCCN)NC(=O)[C@H](Cc1ccc2ccccc2c1)NC(=O)[C@H](CC(C)C)NC(=O)CN)[C@@H](C)OP(=O)(O)O)C(N)=O (H-GL[2Nal]KRLK[pT]LL-NH2)
MIC [1]: 64 µM (≈ 84.3 µg/mL) | CC50 at 1 h [2]: 131 µM | MIC [3]: 128 µM (≈ 169 µg/mL) | MIC [4]: 32 µM (≈ 42.2 µg/mL) | MIC [5]: 64 µM (≈ 84.3 µg/mL) | MHC [6]: > 256 µM | MIC [7]: 128 µM (≈ 169 µg/mL) | MIC [8]: 32 µM (≈ 42.2 µg/mL) | MIC [9]: 128 µM (≈ 169 µg/mL) | MIC [10]: 64 µM (≈ 84.3 µg/mL) | MIC [11]: 128 µM (≈ 169 µg/mL) | MIC [12]: 64 µM (≈ 84.3 µg/mL) | MIC [13]: 32 µM (≈ 42.2 µg/mL) | MIC [14]: 64 µM (≈ 84.3 µg/mL)
